The record followed here is US20230218577A1, “USE OF HEAT SHOCK PROTEIN INHIBITORS FOR THE TREATMENT OF NEURODEVELOPMENTAL DISORDERS” (The Children's Medical Center Corporation, priority 2020, published 2023).

The test system of test [1] is pS6, IGF-IRβ in ctrl-sh neurons. Put plainly: Western blot of pS6 and IGF-IRβ in ctrl-sh neurons. The test is classed as cell-based, rat. The settings on record: dose curve.
Test [2] concerns IGF-IRβ, pS6 in wild-type cortical neurons. The experiment in a line: Proteasomal inhibition experiment, Western blot in wild-type cortical neurons. The conditions noted are these: 4 μM 17-AGG alone, 24 hrs at DIV20. In kind it is cell-based, rat.
Procedure: Hippocampi and cortexes from 18-day-old rat embryos (Charles River CD1) were isolated under the microscope and collected in Hank's Balanced Salt Solution containing 10 mM MgCl2, 1 mM kynurenic acid, 10 mM HEPES and penicillin/streptomycin. After 5 min dissociation at 37° C. in 30 U/ml of papain, neurons were mechanically triturated and plated in Neurobasal (NB) medium containing B27 supplement, 2 mM L-glutamine, penicillin/streptomycin and primocin (NB/B27). Biochemical analysis was performed on cortical cultures plated at 1×10^6 cells/well onto six-well plates. Immunofluorescent analysis was performed on hippocampal cultures plated at 20×10^3 cells/well onto 96-well plates. All plates were coated with 20 μg/ml poly-D-lysine (PDL).
Stocks of drugs were freshly diluted in NB media before performing each experiment. The same amount of vehicle was used as vehicle-only control. For dose response curves serial dilutions were freshly made in NB media by a manual multichannel pipette using compound dilution plates.
Protein extracts were lysed in 1×SDS (22 mM Tris-HCl pH 6.8, 4% Glycerol, 0.8% SDS, 1.6% β-mercaptoethanol, bromphenol blue) sample buffer, heated to 95° C. for 5 min and stored frozen. Before being subjected to discontinuous gel electrophoresis, equal amounts of all protein lysates were verified by Coomassie gel staining. For immunoblotting, equal amounts of protein lysates were subjected to SDS-PAGE, transferred to Immobilon-P Millipore and incubated in LI-COR blocking solution at RT for 2 hrs. Primary and secondary antibodies were diluted in LI-COR blocking solution to the appropriate concentrations. LI-COR IRDye secondary antibodies were used. All images were acquired using the LI-COR Odyssey Classic imager and associated Image Studio Lite analysis software (version 5.2.5). Quantification of protein expression was performed by densitometry scans of immunoblots using LI-COR Odyssey imaging system.
Test [3] has as its system ciliated neurons in CA1 of the hippocampus of Tsc2 mutant mice. Put plainly: Ciliated neurons in brain of Tsc2 mutant mice (immunohistochemistry, manual cilia counting). The test is classed as in vivo, mouse. The settings on record: rapamycin 3 mg/kg i.p. every other day P7 until P56. From the text:
Neuronal cilia in TSC mouse models was examined with either a conditional deletion of TSC1 or TSC2 driven by the Synapsin-1 promoter, which results in loss of TSC1/2 proteins in post-mitotic neurons of the cortex and of the hippocampus. The TSC1/SynCre mice (Tsc1 mutant) have a shorter life span (median age postnatal day 35, P35), and they recapitulate many of the neurological manifestations of TSC, including seizures and presence of ectopic giant cells (Meikle et al., A mouse model of tuberous sclerosis: neuronal loss of Tsc1 causes dysplastic and ectopic neurons, reduced myelination, seizure activity, and limited survival; J Neurosci 27, 5546-5558 (2007)). […]
For histological analysis, animals were anesthetized (1 ml of 2.5% Avertin) and perfused transcardially with 4% PFA. […] Finally, the average percentage of neurons with cilia (NeuN^+/ACIII^+) was calculated in each of the images. […] The average percentage of SMI311^+ or SMI311^− with cilia was calculated. […] A threshold for cilia count was set such that only ACIII positive objects that measured longer than 1 μm were counted as cilia. All the imaging and the quantification were done in a blinded way. […] All quantifications were performed in a blinded fashion.

With `C=CCNC1=C2C[C@@H](C)C[C@H](OC)[C@H](O)[C@@H](C)/C=C(\C)[C@H](OC(N)=O)[C@@H](OC)C=C/C=C(\C)C(=O)NC(=CC1=O)C2=O` [17-AGG, 3 S,5S,6R,7S,8E,10R,11S,12E,14E)-21-(allylamino)-6-hydroxy-5,11-dimethoxy-3,7,9,15-tetramethyl-16,20,22-trioxo-17-azabicyclo[16.3.1]docosa-8,12,14,18,21-pentaen-10-yl] carbamate], in test [1], the IGF-IRβ levels result is reported as “reduced” and the S6 phosphorylation entry was “reduced”. Besides, the IGF-IRβ levels result in test [2] is recorded as “reduced”.

For the compound `CO[C@H]1C[C@@H]2CC[C@@H](C)[C@@](O)(O2)C(=O)C(=O)N2CCCC[C@H]2C(=O)O[C@H]([C@H](C)C[C@@H]2CC[C@@H](O)[C@H](OC)C2)CC(=O)[C@H](C)/C=C(\C)[C@@H](O)[C@@H](OC)C(=O)[C@H](C)C[C@H](C)/C=C/C=C/C=C/1C` [rapamycin], the ciliation defects result in test [3] is given as “prevented”.
